The record followed here is US12077506B2, “Indane derivatives as hypoxia inducible factor-2(α) inhibitors” (priority 2019, dated 2024).

Read-outs that look alike come from different tables or passages of the source.

In the experiment the target is HIF-2α (Homo sapiens (Human), UniProt Q99814). The experiment in a line: VEGF ELISA Assay. The experiment is classed as cell-based. How it is done:
The ability of the disclosed compounds to inhibit HIF-2α was measured by determining VEGF expression in 786-O cells. About 7500 786-O cells were seeded into each well of a 96-well, white, clear bottom plate (07-200-566, Fisher Scientific) with 200 ul growth medium. Four hours later, compounds were dispensed into wells by Tecan D300e digital dispenser with starting concentration of 10 uM and ½ log of dilution down to 1 nM as final concentration. Each concentration of treatment was performed in duplicate. About 20 hours later, medium was removed and fresh medium was added, followed by compounds treatment as described above. After 24 hours, cell culture medium was collected to determine VEGF concentration using an ELISA kit (R&D systems, cat #DVE00) following the manufacturer's instruction.
The EC50 was calculated by GraphPad Prism using the dose-response-inhibition (four parameter) equation. The plate with cells was then subjected to CellTiter-Glo luminescence cell viability assay (Promega) to determine the effect of these compounds on cell numbers after the above treatment.

[1] abbreviates: VEGF expression in 786-O cells, ELISA of culture medium, read-out: EC50.

Sequence of HIF-2α (Q99814 whole entry): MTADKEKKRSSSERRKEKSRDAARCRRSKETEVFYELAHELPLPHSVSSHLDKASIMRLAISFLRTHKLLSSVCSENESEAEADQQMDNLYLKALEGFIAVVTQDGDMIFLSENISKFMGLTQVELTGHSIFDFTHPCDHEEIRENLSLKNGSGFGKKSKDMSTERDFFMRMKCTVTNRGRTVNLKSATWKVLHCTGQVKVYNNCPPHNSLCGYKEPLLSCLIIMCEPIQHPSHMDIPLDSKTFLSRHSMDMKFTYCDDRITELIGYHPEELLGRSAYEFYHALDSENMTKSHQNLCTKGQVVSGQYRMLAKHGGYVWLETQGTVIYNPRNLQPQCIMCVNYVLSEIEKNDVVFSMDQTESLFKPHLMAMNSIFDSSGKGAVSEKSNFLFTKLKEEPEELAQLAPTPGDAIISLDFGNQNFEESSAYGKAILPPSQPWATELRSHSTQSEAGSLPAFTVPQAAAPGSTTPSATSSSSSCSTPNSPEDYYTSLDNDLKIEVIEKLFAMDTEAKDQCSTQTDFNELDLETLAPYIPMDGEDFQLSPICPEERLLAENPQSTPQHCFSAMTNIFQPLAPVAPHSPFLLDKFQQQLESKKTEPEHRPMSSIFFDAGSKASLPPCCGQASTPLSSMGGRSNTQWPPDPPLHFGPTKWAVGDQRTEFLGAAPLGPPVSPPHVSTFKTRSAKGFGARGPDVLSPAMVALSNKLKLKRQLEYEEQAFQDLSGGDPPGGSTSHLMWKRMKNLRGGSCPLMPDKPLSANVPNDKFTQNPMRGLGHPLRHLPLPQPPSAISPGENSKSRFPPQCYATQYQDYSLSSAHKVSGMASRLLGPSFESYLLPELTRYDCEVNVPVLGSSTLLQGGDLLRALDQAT

As for `OC1c2c(ccc(Oc3cc(F)cc(Cl)c3)c2C(F)F)C(F)(F)C1(F)F` (stereo not shown) [I-7, 6-(3-chloro-5-fluorophenoxy)-7-(difluoromethyl)-2,2,3,3-tetrafluoro-2,3-dihydro-1H-inden-1-ol], the EC50 (as a rule, the concentration at which the effect is half-maximal) under setting [1] was 0.008 µM.

In the case of `CC1(O)c2c(ccc(Oc3cc(F)cc(C#N)c3)c2C#N)C(F)(F)C1(F)F` (stereo not shown) [I-15, 5-(3-cyano-5-fluorophenoxy)-1,1,2,2-tetrafluoro-3-hydroxy-3-methyl-2,3-dihydro-1H-indene-4-carbonitrile], the EC50 under setting [1] worked out at 0.287 µM.

As for `N#Cc1cc(Cl)cc(Oc2ccc3c(c2C(F)F)C(O)C(F)(F)C3(F)F)c1` (stereo not shown) [I-6, 3-chloro-5-((4-(difluoromethyl)-1,1,2,2-tetrafluoro-3-hydroxy-2,3-dihydro-1H-inden-5-yl)oxy)benzonitrile], the EC50 under setting [1] is 0.027 µM.

As for `CCc1c(Oc2cc(F)cc(C#N)c2)ccc2c1C(C)(O)C(F)(F)C2(F)F` (stereo not shown) [I-18, 3-((4-ethyl-1,1,2,2-tetrafluoro-3-hydroxy-3-methyl-2,3-dihydro-1H-inden-5-yl)oxy)-5-fluorobenzonitrile], the 50% effective concentration (EC50) under setting [1] was found to be 2.5 µM.

Consider `CC1(O)c2c(ccc(Oc3cc(F)cc(C#N)c3)c2C(F)F)C(F)(F)C1(F)F` (stereo not shown) [I-2, 3-((4-(difluoromethyl)-1,1,2,2-tetrafluoro-3-hydroxy-3-methyl-2,3-dihydro-1H-inden-5-yl)oxy)-5-fluorobenzonitrile], for which the EC50 under setting [1] was 0.77 µM.

For “7-(difluoromethyl)-6-(3,5-difluorophenoxy)-2,2,3,3-tetrafluoro-2,3-dihydro-1H-inden-1-ol [I-4]”, the EC50 under setting [1] came to 0.004 µM.

As for `N#Cc1cncc(Oc2ccc3c(c2C(F)F)C(O)C(F)(F)C3(F)F)c1` (stereo not shown) [I-9, 5-((4-(difluoromethyl)-1,1,2,2-tetrafluoro-3-hydroxy-2,3-dihydro-1H-inden-5-yl)oxy)nicotinonitrile], under setting [1], the EC50 was 0.147 µM.

`OC1c2c(ccc(OC3CC(F)(F)C3)c2C(F)F)C(F)(F)C1(F)F` (stereo not shown) [I-8, 6-(3,3-difluorocyclobutoxy)-7-(difluoromethyl)-2,2,3,3-tetrafluoro-2,3-dihydro-1H-inden-1-ol]: the EC50 under setting [1] amounted to 0.105 µM.

On to `OC1c2c(ccc(Oc3cncc(F)c3)c2C(F)F)C(F)(F)C1(F)F` (stereo not shown) [I-10, 7-(difluoromethyl)-2,2,3,3-tetrafluoro-6-((5-fluoropyridin-3-yl)oxy)-2,3-dihydro-1H-inden-1-ol], for which the EC50 under setting [1] was 0.054 µM.

As to `N#Cc1cc(F)cc(Oc2ccc3c(c2C(F)F)C(O)C(F)(F)C3F)c1` (stereo not shown) [I-19, 3-((4-(difluoromethyl)-1,2,2-trifluoro-3-hydroxy-2,3-dihydro-1H-inden-5-yl)oxy)-5-fluorobenzonitrile], the EC50 under setting [1] was 0.151 µM.

Regarding `N#Cc1cc(F)cc(Oc2ccc3c(c2C(F)F)C(N)C(F)(F)C3(F)F)c1` (stereo not shown) [I-3, 3-((3-amino-4-(difluoromethyl)-1,1,2,2-tetrafluoro-2,3-dihydro-1H-inden-5-yl)oxy)-5-fluorobenzonitrile], the EC50 under setting [1] was 0.166 µM.

With `CC1(O)c2c(ccc(Oc3cc(F)cc(C#N)c3)c2Br)C(F)(F)C1(F)F` (stereo not shown) [I-16, 3-((4-bromo-1,1,2,2-tetrafluoro-3-hydroxy-3-methyl-2,3-dihydro-1H-inden-5-yl)oxy)-5-fluorobenzonitrile], the EC50 under setting [1] stood at 2.07 µM.

With `[2H][C@]1(O)c2c(ccc(Oc3cc(F)cc(C#N)c3)c2C#N)C(F)(F)C1(F)F` [I-13a, (S)-5-(3-cyano-5-fluorophenoxy)-1,1,2,2-tetrafluoro-3-hydroxy-2,3-dihydro-1H-indene-4-carbonitrile-3-d], a half-maximal response (EC50) required 0.464 µM.

On to `C=Cc1c(Oc2cc(F)cc(C#N)c2)ccc2c1C(C)(O)C(F)(F)C2(F)F` (stereo not shown) [I-17, 3-fluoro-5-((1,1,2,2-tetrafluoro-3-hydroxy-3-methyl-4-vinyl-2,3-dihydro-1H-inden-5-yl)oxy)benzonitrile], for which, under setting [1], the EC50 was determined as 5.77 µM.

As for `[2H][C@@]1(O)c2c(ccc(Oc3cc(F)cc(C#N)c3)c2C#N)C(F)(F)C1(F)F` [I-13b, (R)-5-(3-cyano-5-fluorophenoxy)-1,1,2,2-tetrafluoro-3-hydroxy-2,3-dihydro-1H-indene-4-carbonitrile-3-d], it took 0.012 µM to reach a half-maximal effect (EC50).

For the molecule `N#Cc1cc(F)cc(Oc2ccc3c(c2C(F)F)C(O)C(F)(Cl)C3(F)F)c1` (stereo not shown) [I-20, 3-((2-chloro-4-(difluoromethyl)-1,1,2-trifluoro-3-hydroxy-2,3-dihydro-1H-inden-5-yl)oxy)-5-fluorobenzonitrile], under setting [1], the EC50 was 0.02 µM.

`Cc1cc(C#N)cc(Oc2ccc3c(c2C(F)F)C(O)C(F)(F)C3(F)F)c1` (stereo not shown) [I-5, 3-((4-(difluoromethyl)-1,1,2,2-tetrafluoro-3-hydroxy-2,3-dihydro-1H-inden-5-yl)oxy)-5-methylbenzonitrile]: under setting [1], the EC50 worked out at 0.067 µM.

In turn, `[2H]C1(O)c2c(ccc(Oc3cncc(F)c3)c2C#N)C(F)(F)C1(F)F` (stereo not shown) [I-14, 1,1,2,2-tetrafluoro-5-((5-fluoropyridin-3-yl)oxy)-3-hydroxy-2,3-dihydro-1H-indene-4-carbonitrile-3-d] showed an EC50 of 0.183 µM.

As to `N#Cc1cc(F)cc(Oc2ccc3c(c2C(F)F)C(O)C(F)(F)C3(F)F)c1` (stereo not shown) [I-1, 3-((4-(difluoromethyl)-1,1,2,2-tetrafluoro-3-hydroxy-2,3-dihydro-1H-inden-5-yl)oxy)-5-fluorobenzonitrile], under setting [1], the EC50 was 0.006 µM.
